Data from patent publication US12084523B2, “Ubiquitin high affinity cyclic peptides and methods of use thereof” (TECHNION RESEARCH & DEVELOPMENT FOUNDATION LIMITED, priority 2018, dated 2024).
Read-outs that look alike come from different tables or passages of the source. No end group written: not given here.

How the values were obtained:
USP2 [1] = experiment: In vitro deubiquitination assay, USP2 with K48-linked di-Ub; type: biochemical; conditions: di-Ub as the substrate
Experimental: (§1) In Vitro Deubiquitination Assay
(§2) In vitro deubiquitination reactions were performed in a Tris buffer (50 mM TRIS, 1 mM TCEP, pH 7.7), containing 2 μM ^K48Ub2/4, then the specific DUB (50 mM Tris, 0.5 mM EDTA, 1 mM TCEP and 0.5 mg/ml ovalbumin, pH 7.5) was added. The reaction mixtures were incubated at 37° C. and at the indicated time points the reactions were stopped by taking aliquots and mixed them with 3× sample buffer and boiling. The same amounts were loaded on 14% SDS-PAGE, electro-blotted to nitrocellulose membrane and probed with an anti-Ub antibody. Bands were quantified with Image Quant LAS 4000 (GE Healthcare).
(§3) The inventors further chose to examine the effect of these cyclic peptides on two DUBs: OTUB1, a K48-linkage chain specific DUB, and USP2, which cleaves most Ub chains without specificity, using K48-linked di- and tetra-Ub chains as substrates.

K48-Ub2 [2] = molecular target: T1, K48-Ub2 (Homo sapiens, UniProt P0CG47); experiment: SPR binding of cyclic peptides to K48-linked di-ubiquitin
T1 construct: solid phase peptide synthesis of Ub monomers (modified as required); made in house; host or cells: total chemical synthesis (SPPS, isopeptide ligation, desulfurization)
Experimental: The interactions between cyclic peptides: U2i, U2ii, U4i, U4ix and Ub1, ^K48Ub2 and ^K48Ub4, were determined using BIACORE T100 instrument (GE healthcare) equipped with a biotin CAPture kit Series S chip. The buffer in all experiments contained 50 mM HEPES, pH 7.3, 150 mM NaCl, 0.05% Tween20, 2 mM DTT with 0.2% DMSO. Biotinylated Ub1, ^K48Ub2 and ^K48Ub4 were loaded to approximately equal molar amounts on the SPR chip, and various concentrations of cyclic peptides were flowed over at 100 μL/sec for 120 sec, before initiation of dissociation by flowing buffer over at 100 μL/sec for further 700 sec. Traces were fit to the simplest, two-state model for binding. Association was fit to a single exponential assuming pseudo-first order conditions, whereas the dissociation trace was fit to single exponential plus a drift term.
Each peptide was flowed over Ub1, ^K48Ub2 and ^K48Ub2 immobilized on SPR chips.

^K48Ub4 = molecular target: T2, ^K48Ub4 (Homo sapiens, UniProt P0CG47); experiment: SPR binding of cyclic peptides to K48-linked tetra-ubiquitin
T2 construct: solid phase peptide synthesis of Ub monomers (modified as required); made in house
Experimental: Surface Plasmon Resonance (SPR)
The interactions between cyclic peptides: U2i, U2ii, U4i, U4ix and Ub1, ^K48Ub2 and ^K48Ub4, were determined using BIACORE T100 instrument (GE healthcare) equipped with a biotin CAPture kit Series S chip. The buffer in all experiments contained 50 mM HEPES, pH 7.3, 150 mM NaCl, 0.05% Tween20, 2 mM DTT with 0.2% DMSO. Biotinylated Ub1, ^K48Ub2 and ^K48Ub4 were loaded to approximately equal molar amounts on the SPR chip, and various concentrations of cyclic peptides were flowed over at […] for 120 sec, before initiation of dissociation by flowing buffer over at […] for further 700 sec. Traces were fit to the simplest, two-state model for binding. Association was fit to a single exponential assuming pseudo-first order conditions, whereas the dissociation trace was fit to single exponential plus a drift term. Finally, due to the poor quality of the traces for U4ix binding ^K48Ub2, the amplitude of the association kinetic trace at different concentrations of peptide was fit to estimate the lower bound for KD.
Each peptide was flowed over Ub1, ^K48Ub2 and […] immobilized on SPR chips. There was no detectable binding to Ub1 for any of the peptides, as expected, as Ub1 binding was explicitly selected against during the RaPID protocol. […] However, Ub2i and Ub2ii also strongly bound ^K48Ub4, with a low apparent KD and an increased SPR response (FIG. 1E). This was consistent with a higher stoichiometry of binding to the tetramer, which could be explained by additional binding sites in ^K48Ub4. Indeed, the ^K48Ub2 structure can be superimposed twice on the ^K48Ub4 crystal structure (FIG. 10). […] However, similar to Ub2i and Ub2ii, Ub4i also bound ^K48Ub2. This was perhaps unsurprising, given the high sequence identity between Ub4i and Ub2i.

26S proteasome = experiment: In vitro proteasome degradation assay of HA-α-globin-K48-linked tetra-Ub; type: biochemical; conditions: 5.3 μM peptide
^K63Ub2 = molecular target: T3, ^K63Ub2 (Homo sapiens, UniProt P0CG47, K63R); experiment: NMR titration with K63-linked di-Ub; type: binding; conditions: up to 2:1 peptide:Ub2
T3 construct: Recombinant Ub monomers carrying chain-terminating mutations; made in house
Experimental: (§4) All NMR studies were performed on Bruker Avance III 600 MHz spectrometer equipped with TCI cryoprobe. The sample temperature was set to 23° C. for Ub2ii binding studies or 25° C. for Ub4ix studies, unless indicated otherwise. The protein (monomeric Ub or Ub chains) samples were prepared in 20 mM sodium phosphate buffer (pH 6.8) containing 5-10% D20 and 0.02% (w/v) NaN3. The Ub2ii peptide was dissolved in deuterated DMSO (up to 20 mM concentration) and titrated in μL amounts into 50 μM ^15N-Ub^WT or K63-linked Ub2 (^15N-enriched in the distal domain) to two molar equivalents. Ub2ii was titrated into 100 μM solutions of proximally- or distally-^15N-enriched ^K48Ub2 to 1:1 or 1:1.3 molar ratio, respectively, as well as into 200 μM ^K48Ub2 with the ^13C/^15N-enriched proximal or distal Ub unit. Ub4ix titration into K48-linked Ub2, Ub3, and Ub4 was performed in a similar manner, with the starting Ub chain concentration of 200 μM; the chain/peptide molar ratio at the endpoint varied from 1:1 (Ub2) to 1:1.5 or 1:2 for Ub3 and Ub4. Several of these titrations were performed twice and at differing protein concentrations, to verify the reproducibility of the observed spectral changes. Separately, a similar amount of DMSO was added to ^15N-labeled Ub to verify that the presence of DMSO in the peptide-containing stock solution had negligible effect on Ub spectra. […]

monomeric Ub = molecular target: T4, monomeric Ub (Homo sapiens, UniProt P0CG47); experiment: NMR titration with monomeric Ub; type: binding; conditions: compared with ^K48Ub2
T4 construct: made in house
Experimental: as §4

[3] = tested on: K48-linked Ub elongation on Ring1B; experiment: In vitro K48-linked Ub elongation on Ring1B (western blot); type: biochemical
USP2 [4] = experiment: In vitro deubiquitination assay, USP2 with K48-linked tetra-Ub; type: biochemical; conditions: tetra-Ub chain, after removal of the distal Ub (tri-Ub)
Experimental: as §1, §2, §3

K48-Ub2 [5] = molecular target: T1, K48-Ub2; experiment: Deep mutational scanning of J08_mClBz (relative enrichment, MiSeq); type: binding; conditions: single mutation of J08_mClBz
Description: FIG. 36 is a bar graph showing relative enrichment (log2 E) versus single mutations based on deep scanning (Step 2b in FIG. 34B). E=Positive fraction %/Input fraction % according MiSeq sequencing results. Bars of positive values and negative values indicate potentially favorable and unfavorable mutations, respectively.
Mutation of Leu6 seemed highly flexible which allowed its replacement by either nonpolar or polar residues. […] Based on this information, the inventors prepared nine peptides containing F9Y mutations.

[6] = SPR, target ^K48Ub2, read-out: KD
[7] = range stated in the description, 'as exemplified', read-out: dimeric Ub binding affinity KD
[8] = SPR, target ^K48Ub4, read-out: KD
[9] = range stated in the description, 'as exemplified', read-out: tetrameric Ub binding affinity KD

Row | Molecule | koff (K48-Ub2 [2]; SPR, target ^K48Ub2) | kon (K48-Ub2 [2]; SPR, target ^K48Ub2) | Kd (K48-Ub2 [2]; [6]) | Kd (K48-Ub2 [2]; [7]) | koff (^K48Ub4; SPR, target ^K48Ub4) | kon (^K48Ub4; SPR, target ^K48Ub4) | Kd (^K48Ub4; [8]) | Kd (^K48Ub4; [9]) | inhibition of USP2 (USP2 [1]) | inhibition of proteasomal degradation of α-globin-K48-linked tetra-Ub (26S proteasome) | other results
1 | linear Ub4ix: uncyclized/linear form of Ub4ix (WLYLDDSGDWWICG; not fully specified (residue 1)) | – | – | – | – | – | – | – | – | – | no inhibition | –
2 | *FQYWOYATGVCG [Ub4_a] | – | – | – | – | – | – | – | – | – | clear inhibition | inhibition of K48-linked Ub elongation on Ring1B [3]: inhibit
3 | *FQLWOHAIALCG [Ub4_e] | – | – | – | – | – | – | – | – | – | clear inhibition | inhibition of K48-linked Ub elongation on Ring1B [3]: inhibit
4 | M*GWFDDLYLFVAY-CG [J08_mClBz] | – | – | – | – | – | – | – | – | – | – | fold improvement of binding affinity (K48-Ub2 [2]; compared with U4i (chloroacetyl-cyclized peptide of same sequence)): 9 fold
5 | *GWFDDLYLYVAYC [J08_mClBz_F9Y] | – | – | – | – | – | – | – | – | – | – | relative enrichment ratio (K48-Ub2 [5]): > 5; fold improvement of binding affinity (K48-Ub2 [2]; from J08_mClBz): 17 fold

Further lines, with some results ahead:

Row | koff (K48-Ub2 [2]; SPR, target ^K48Ub2) | kon (K48-Ub2 [2]; SPR, target ^K48Ub2) | Kd (K48-Ub2 [2]; [6]) | Kd (K48-Ub2 [2]; [7]) | koff (^K48Ub4; SPR, target ^K48Ub4) | kon (^K48Ub4; SPR, target ^K48Ub4) | Kd (^K48Ub4; [8]) | Kd (^K48Ub4; [9]) | Molecule | inhibition of USP2 (USP2 [1]) | inhibition of proteasomal degradation of α-globin-K48-linked tetra-Ub (26S proteasome) | other results
6 | 0.024 s⁻¹ | 593000 M⁻¹ s⁻¹ | 40 ± 12 nM | 20 to 40 nM | 0.011 s⁻¹ | 779000 M⁻¹ s⁻¹ | 14 nM | 15 to 25 nM | CC(C)C[C@@H]1NC(=O)[C@H](CC(N)=O)NC(=O)[C@H](CC(=O)O)NC(=O)[C@H](Cc2ccccc2)NC(=O)[C@H](Cc2c[nH]c3ccccc23)NC(=O)CNC(=O)[C@@H](Cc2c[nH]c3ccccc23)NC(=O)CSC[C@@H](C(=O)NCC(N)=O)NC(=O)[C@H](Cc2c[nH]cn2)NC(=O)[C@H]([C@@H](C)O)NC(=O)[C@H](C(C)C)NC(=O)[C@H](Cc2ccc(O)cc2)NC(=O)[C@H](Cc2c[nH]c3ccccc23)NC(=O)[C@H](Cc2ccc(O)cc2)NC1=O [Ub2i] | ~40% | – | –
7 | 0.016 s⁻¹ | 489000 M⁻¹ s⁻¹ | 33 ± 8 nM | 30 to 50 nM | 0.012 s⁻¹ | 877000 M⁻¹ s⁻¹ | 14 nM | 10 to 20 nM | CC(C)C[C@@H]1NC(=O)[C@H](Cc2ccc(O)cc2)NC(=O)[C@H](Cc2ccc(O)cc2)NC(=O)[C@H](Cc2ccc(O)cc2)NC(=O)[C@H](CCC(=O)O)NC(=O)[C@H](CCCNC(=N)N)NC(=O)[C@H](CC(=O)O)NC(=O)[C@H](Cc2ccc(O)cc2)NC(=O)[C@H](Cc2c[nH]c3ccccc23)NC(=O)[C@@H](Cc2c[nH]c3ccccc23)NC(=O)CSC[C@@H](C(=O)NCC(N)=O)NC(=O)CNC(=O)[C@H](Cc2ccc(O)cc2)NC(=O)CNC1=O [Ub2ii] | ~40% | – | binding to K63-linked di-Ub (NMR) (^K63Ub2): non-specific and much weaker; binding to monomeric Ub (NMR) (monomeric Ub): much weaker binding
8 | 0.024 s⁻¹ | 262000 M⁻¹ s⁻¹ | 91 nM | 85 to 115 nM | 0.011 s⁻¹ | 407000 M⁻¹ s⁻¹ | 26 nM | 20 to 35 nM | CC(C)C[C@@H]1NC(=O)[C@H](CC(=O)O)NC(=O)[C@H](CC(=O)O)NC(=O)[C@H](Cc2ccccc2)NC(=O)[C@H](Cc2c[nH]c3ccccc23)NC(=O)CNC(=O)[C@@H](Cc2c[nH]c3ccccc23)NC(=O)CSC[C@@H](C(=O)NCC(N)=O)NC(=O)[C@H](Cc2ccc(O)cc2)NC(=O)[C@H](C)NC(=O)[C@H](C(C)C)NC(=O)[C@H](Cc2ccccc2)NC(=O)[C@H](CC(C)C)NC(=O)[C@H](Cc2ccc(O)cc2)NC1=O [Ub4i] | ~40% | – | Kd (K48-Ub2 [2]; text and figure legend, K48-Ub2, read-out: KD / binding affinity): 90 nM; inhibition of USP2 (USP2 [4]): strong inhibition
